In patent publication US20210038579A1, “Treatment Of Patients With Classic Fabry Disease” (Amicus Therapeutics, Inc., priority 2018, published 2021):

Test system: GL-3 inclusions per kidney interstitial capillary
Assay: Phase 3 study, ERT-naïve Fabry patients: kidney histology assessment
Type: in vivo, human
Description: Kidney Histology Assessment. Each patient underwent a baseline kidney biopsy, as well as repeat kidney biopsies at 6 and 12 months. The number of GL-3 inclusions per kidney interstitial capillary per patient at baseline, and at 6 and 12 months was quantitatively assessed in 300 capillaries by 3 independent pathologists blinded to treatment and visit. All values for each individual biopsy at a given time were averaged prior to statistical analysis.
Statistical Analyses for Kidney Interstitial Capillary GL-3 Substrate. The primary Stage 1 (6 month) endpoint (i population with baseline biopsies, n=64) was the proportion of patients in the migalastat and placebo groups with a ≥50% reduction in GL-3 inclusions per kidney interstitial capillary. Two other Stage 1 endpoints were assessed (modified-ITT population: randomized patients with paired baseline and month 6 biopsies; n=60): percent change in GL-3 inclusions per kidney interstitial capillary, and percent of interstitial capillaries with zero GL-3 inclusions.
Efficacy analyses for GL-3 inclusions per kidney interstitial capillary and other pre-specified endpoints in Stage 2 (months 6-12) and the open-label-extension (months 12-24) were based on the modified intention to treat (mITT)—population consisting of randomized patients with mutant α-Gal A enzyme shown to be suitable for migalastat treatment by the validated assay; n=50).
For all outcomes except GL-3 inclusions per kidney interstitial capillary, data are pooled for patients within phenotype subgroups regardless of treatment allocation for the first six months (migalastat or placebo).

SMILES: OC[C@H]1NC[C@H](O)[C@@H](O)[C@H]1O [migalastat]
- mean (SD) change in GL-3 inclusions per kidney interstitial capillary (classic male patients switched from placebo to migalastat at month 6, next 6 months): −0.7 (0.91)
- mean change in GL-3 inclusions (total amenable patient population, 6 months of migalastat treatment): −0.25
- mean change in GL-3 inclusions (total patient population, after switching from placebo to migalastat at month 6): −0.33
